Laboratory results published in ChEMBL document CHEMBL1201862, “PubChem BioAssay data set” (2004).
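Exposure lasted 48 hours, with cells grown in 96-well plates and compounds tested at five concentrations. At the GI50, growth is halved.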 Activity calls are given as the source filed them. Rule as the data show it: active = GI50 up to about 1.1 µM and inactive = higher.

Key:
Test in all cases: NCI tumour cell line growth inhibition, 48 h
[1] = system: A549
[2] = system: CAKI-1
[3] = system: EKVX
[4] = system: HCT-116
[5] = system: Hs-578T
[6] = system: KM12
[7] = system: M14
[8] = system: MCF7
[9] = system: MOLT-4
[10] = system: NCI-H522
[11] = system: OVCAR-5
[12] = system: OVCAR-8
[13] = system: RPMI-8226
[14] = system: SK-MEL-28
[15] = system: SK-MEL-2
[16] = system: SW-620
[17] = system: TK-10
[18] = system: UACC-257
[19] = system: NCI-H226

SMILES | GI50 [1] | GI50 [2] | GI50 [3] | GI50 [4] | GI50 [5] | GI50 [6] | GI50 [7] | GI50 [8] | GI50 [9] | GI50 [10] | GI50 [11] | GI50 [12] | GI50 [13] | GI50 [14] | GI50 [15] | GI50 [16] | GI50 [17] | GI50 [18] | GI50 [19]
Cc1cc(-c2[nH]c(C(=O)O)cc2I)on1 | 56.6 µM (inactive) | 93.1 µM (inactive) | 51.6 µM (inactive) | 42 µM (inactive) | 67.9 µM (inactive) | > 100 µM (inactive) | 80 µM (inactive) | > 100 µM (inactive) | > 100 µM (inactive) | > 100 µM (inactive) | 29.2 µM (inactive) | 20.2 µM (inactive) | > 100 µM (inactive) | > 100 µM (inactive) | > 100 µM (inactive) | > 100 µM (inactive) | > 100 µM (inactive) | > 100 µM (inactive) | 
O=C(OC1C(Oc2ccccc2COC(=O)C2(O)C=CCCC2=O)OC(CO)C(O)C1O)c1ccccc1 (stereo unspecified) | 7.05 µM (inactive) | 4.11 µM (inactive) |  | 45.9 µM (inactive) | 13.5 µM (inactive) | 27.4 µM (inactive) | 35 µM (inactive) |  | 6.03 µM (inactive) | 17.7 µM (inactive) | 91.2 µM (inactive) | 36.7 µM (inactive) | 13.5 µM (inactive) | 68.4 µM (inactive) | 65.8 µM (inactive) | 24.7 µM (inactive) | 31.3 µM (inactive) | 46.5 µM (inactive) | 23.8 µM (inactive)
NNc1ncc2c(n1)-c1ccccc1OC2 | 96.2 µM (inactive) | > 100 µM (inactive) | 49.4 µM (inactive) | 36.5 µM (inactive) | > 100 µM (inactive) | 54.1 µM (inactive) | 52.4 µM (inactive) | 50.1 µM (inactive) | 22.5 µM (inactive) | 46.5 µM (inactive) | > 100 µM (inactive) | 44.4 µM (inactive) | 38.2 µM (inactive) | > 100 µM (inactive) | > 100 µM (inactive) | 69.7 µM (inactive) | > 100 µM (inactive) | > 100 µM (inactive) | 75.2 µM (inactive)
C/C=C\C(CC(=O)NCCC1CN(C(=O)OCc2ccccc2)c2ccccc21)CC(=O)OC (stereo unspecified) | > 100 µM (inactive) | > 100 µM (inactive) | > 100 µM (inactive) | > 100 µM (inactive) | > 100 µM (inactive) | > 100 µM (inactive) | > 100 µM (inactive) | > 100 µM (inactive) | > 100 µM (inactive) | > 100 µM (inactive) | > 100 µM (inactive) | > 100 µM (inactive) | 79.4 µM (inactive) | > 100 µM (inactive) | > 100 µM (inactive) | > 100 µM (inactive) | > 100 µM (inactive) | > 100 µM (inactive) | 
O=C(Cn1c2c(c3ccccc31)CCCC2)NC1CCCCC1 | > 100 µM (inactive) | > 100 µM (inactive) | > 100 µM (inactive) | > 100 µM (inactive) | 55 µM (inactive) |  | > 100 µM (inactive) | > 100 µM (inactive) | > 10 µM (inactive) |  | 46.8 µM (inactive) | > 100 µM (inactive) | > 100 µM (inactive) | 63 µM (inactive) | > 100 µM (inactive) | > 100 µM (inactive) | > 100 µM (inactive) | > 100 µM (inactive) | 
C/C(=N\Nc1nc2ccccc2o1)c1cc(C)ncn1 | 0.0957 µM (active) | 0.0129 µM (active) | < 0.0153 µM (active) | < 0.0191 µM (active) | 0.231 µM (active) | 0.0851 µM (active) | < 0.0206 µM (active) | 0.0212 µM (active) | < 0.01 µM (active) | < 0.01 µM (active) | 0.618 µM (active) | 0.0173 µM (active) | 0.0306 µM (active) | 4 µM (inactive) | 1.38 µM (inactive) | < 0.0201 µM (active) |  | < 0.0211 µM (active) | < 0.0142 µM (active)
